“Also recorded” adds a separate entry of the source.
Tested on: premenstrual syndrome
Assay: Blind test with questionnaire survey: alleviating effect on premenstrual syndrome, once a day for eight weeks
Assay type: in vivo, women
Details: for alleviation, percentage / alleviation, the number of people / complete alleviation, percentage / complete alleviation, the number of people / no change, percentage / no change, the number of people / significant alleviation, percentage / significant alleviation, the number of people: eight weeks
Text: 1. Evaluation of Administration of Pinitol or D-Chiro-Inositol to Female Subject Pinitol and D-chiro-inositol were purchased from Biosearch Life (Camino de Purchil, 66. 18004 Granada, Spain). Selected as experiment subjects were 80 normal women of reproductive age, that is, 80 women at the age of 25-40 who had neither skipped three or more cycles of menstruation, nor been administered with a contraceptive pill, and nor received a psychiatric treatment. Of them, 40 persons were classified into four groups of 10 which were then administered respectively with a placebo free of pinitol and having no pharmaceutical effects and with pinitol at three different doses. Likewise, the remaining 40 persons were equally divided into one placebo group and three experimental groups to which D-chiro-inositol was administered at three different doses, respectively. A blind test was conducted in which the placebo and pinitol or D-chiro-inositol was administered once a day for eight weeks. Pinitol or D-chiro-inositol was administered at daily doses of 600 mg, 1,200 mg, and 2,400 mg for eight weeks. A survey was made of the experimental subjects before and after the clinical test of placebo and pinitol or D-chiro-inositol to evaluate the alleviating effect of pinitol or D-chiro-inositol on premenstrual syndrome. 2. Survey In the present disclosure, the questionnaire that experimental subjects had completed with respect to the severity of premenstrual syndrome were analyzed. The experimental subjects evaluated the placebo, pinitol, or D-chiro-inositol for a pharmacological effect on premenstrual syndrome on the basis of four grades: complete alleviation, significant alleviation, somewhat alleviation, and no change for dysmenorrhea, a period of dysmenorrhea, and coldness of hands and feet. [table]

[1] = administration group of 1,200 mg or 2,400 mg
[2] = coldness of hands and feet, 600 mg a day
[3] = coldness of hands and feet, 1,200 mg a day
[4] = coldness of hands and feet, 2,400 mg a day
[5] = period of dysmenorrhea, 600 mg a day
[6] = period of dysmenorrhea, 1,200 mg a day
[7] = period of dysmenorrhea, 2,400 mg a day

In the case of `O[C@H]1[C@H](O)[C@H](O)[C@@H](O)[C@H](O)[C@H]1O` [DCI, D-chiro-inositol], the “share of group with somewhat or significant alleviation of the main symptoms of premenstrual syndrome” value (administration group of 600 mg, across main symptoms) is reported as 50-60%, the “share of group with complete alleviation of the main symptoms” value (administration group of 1,200 mg) is reported as at least 50% and the “share of group that answered alleviation in the main symptoms” value [1] is reported as 80-90%. The “share of group that did not feel changes in the main symptoms of premenstrual syndrome” value [1] was 10%, the “share of group with complete alleviation of the main symptoms” value (administration group of 2,400 mg) was 70-80% and the “alleviation, percentage” value [2] was 30.0%. The “alleviation, the number of people” value [2] was 3 person, the “complete alleviation, percentage” value [2] was 0.0% and the “complete alleviation, the number of people” value [2] was 0 person. For the same compound, the “no change, percentage” value [2] was 50.0%, the “no change, the number of people” value [2] was 5 person and the “significant alleviation, percentage” value [2] was 20.0%. For the same compound, the “significant alleviation, the number of people” value [2] was 2 person, the “alleviation, percentage” value [3] was 20.0% and the “alleviation, the number of people” value [3] was 2 person. The “complete alleviation, percentage” value [3] was 50.0%, the “complete alleviation, the number of people” value [3] was 5 person and the “no change, percentage” value [3] was 10.0%. The “no change, the number of people” value [3] was 1 person, the “significant alleviation, percentage” value [3] was 20.0% and the “significant alleviation, the number of people” value [3] was 2 person. For the same compound, the “alleviation, percentage” value [4] was 0.0%, the “alleviation, the number of people” value [4] was 0 person and the “complete alleviation, percentage” value [4] was 80.0%. For the same compound, the “complete alleviation, the number of people” value [4] was 8 person, the “no change, percentage” value [4] was 10.0% and the “no change, the number of people” value [4] was 1 person. For the same compound, the “significant alleviation, percentage” value [4] was 10.0%, the “significant alleviation, the number of people” value [4] was 1 person and the “effect on the main symptoms of premenstrual syndrome (dysmenorrhea, period of dysmenorrhea, coldness of hands and feet), in words” value (daily dose of 600 mg, 1,200 mg, and 2,400 mg) was “Significant reductions; also recorded: significantly alleviating”. For the same compound, the “alleviation, percentage” value (dysmenorrhea, 600 mg a day) was 20.0%, the “alleviation, the number of people” value (dysmenorrhea, 600 mg a day) was 2 person and the “complete alleviation, percentage” value (dysmenorrhea, 600 mg a day) was 0.0%. The “complete alleviation, the number of people” value (dysmenorrhea, 600 mg a day) was 0 person, the “no change, percentage” value (dysmenorrhea, 600 mg a day) was 40.0% and the “no change, the number of people” value (dysmenorrhea, 600 mg a day) was 4 person. For the same compound, the “significant alleviation, percentage” value (dysmenorrhea, 600 mg a day) was 40.0%, the “significant alleviation, the number of people” value (dysmenorrhea, 600 mg a day) was 4 person and the “alleviation, percentage” value (dysmenorrhea, 1,200 mg a day) was 20.0%. For the same compound, the “alleviation, the number of people” value (dysmenorrhea, 1,200 mg a day) was 2 person, the “complete alleviation, percentage” value (dysmenorrhea, 1,200 mg a day) was 50.0% and the “complete alleviation, the number of people” value (dysmenorrhea, 1,200 mg a day) was 5 person. For the same compound, the “no change, percentage” value (dysmenorrhea, 1,200 mg a day) was 0.0%, the “no change, the number of people” value (dysmenorrhea, 1,200 mg a day) was 0 person and the “significant alleviation, percentage” value (dysmenorrhea, 1,200 mg a day) was 30.0%. For the same compound, the “significant alleviation, the number of people” value (dysmenorrhea, 1,200 mg a day) was 3 person, the “alleviation, percentage” value (dysmenorrhea, 2,400 mg a day) was 0.0% and the “alleviation, the number of people” value (dysmenorrhea, 2,400 mg a day) was 0 person. The “complete alleviation, percentage” value (dysmenorrhea, 2,400 mg a day) was 90.0%, the “complete alleviation, the number of people” value (dysmenorrhea, 2,400 mg a day) was 9 person and the “no change, percentage” value (dysmenorrhea, 2,400 mg a day) was 0.0%. The “no change, the number of people” value (dysmenorrhea, 2,400 mg a day) was 0 person, the “significant alleviation, percentage” value (dysmenorrhea, 2,400 mg a day) was 10.0% and the “significant alleviation, the number of people” value (dysmenorrhea, 2,400 mg a day) was 1 person. For the same compound, the “alleviation, percentage” value [5] was 20.0%, the “alleviation, the number of people” value [5] was 2 person and the “complete alleviation, percentage” value [5] was 0.0%. The “complete alleviation, the number of people” value [5] was 0 person, the “no change, percentage” value [5] was 50.0% and the “no change, the number of people” value [5] was 5 person. The “significant alleviation, percentage” value [5] was 30.0%, the “significant alleviation, the number of people” value [5] was 3 person and the “alleviation, percentage” value [6] was 10.0%. For the same compound, the “alleviation, the number of people” value [6] was 1 person, the “complete alleviation, percentage” value [6] was 60.0% and the “complete alleviation, the number of people” value [6] was 6 person. For the same compound, the “no change, percentage” value [6] was 10.0%, the “no change, the number of people” value [6] was 1 person and the “significant alleviation, percentage” value [6] was 20.0%. The “significant alleviation, the number of people” value [6] was 2 person, the “alleviation, percentage” value [7] was 0.0% and the “alleviation, the number of people” value [7] was 0 person. The “complete alleviation, percentage” value [7] was 80.0%, the “complete alleviation, the number of people” value [7] was 8 person and the “no change, percentage” value [7] was 0.0%. The “no change, the number of people” value [7] was 0 person, the “significant alleviation, percentage” value [7] was 20.0% and the “significant alleviation, the number of people” value [7] was 2 person.

Source: patent US20200246277A1, “Composition For Alleviating, Preventing Or Treating Premenstrual Syndrome, Containing, As Active Ingredient, Pinitol, D-Chiro-Inositol Or Analog Compound Thereof” (DY NATURAL CO., LTD., priority 2015, published 2020)
